Data published in patent publication US10206394B2, “Herbicidal compounds” (Syngenta Participations AG, priority 2014, dated 2019).
Like-named read-outs stand apart in the source and are kept apart here.

Key:
Assay in all cases: Glasshouse assay for herbicidal activity (pre- and post-emergence), percentage phytotoxicity
Format in all cases: in vivo
[1] = tested on: Alopecurus myosuroides (ALOMY); conditions: Alopecurus myosuroides
In short: (§1)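 Seeds were sown in standard soil in pots and grown one day (pre-emergence) or about 12 days (post-emergence) before herbicide application. Plants were kept at 24/18 °C (warm-climate) or 20/16 °C (cool-climate) day/night, 16 h light, 65% humidity, watered twice daily, and damage was scored visually at 15 DAA (POST) or 20 DAA (PRE).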

Avena fatua (AVEFA) = conditions: Avena fatua
In short: as §1

[2] = tested on: Echinochloa crus-galli (ECHCG); conditions: Echinochloa crus-galli
In short: as §1

Lolium perenne (LOLPE) = conditions: Lolium perenne
In short: as §1

[3] = post-emergence, 360 h, POST-emergence, rate 250 g/ha, visual score 15 DAA (100%=total damage, 0%=no damage), read-out: Post-emergence herbicidal activity (percentage phytotoxicity) ALOMY POST
[4] = pre-emergence, 480 h, PRE-emergence, rate 250 g/ha, visual score 20 DAA (100%=total damage, 0%=no damage), read-out: Pre-emergence herbicidal activity (percentage phytotoxicity) ALOMY PRE
[5] = post-emergence, 360 h, POST-emergence, rate 250 g/ha, visual score 15 DAA (100%=total damage, 0%=no damage), read-out: Post-emergence herbicidal activity (percentage phytotoxicity) AVEFA POST
[6] = pre-emergence, 480 h, PRE-emergence, rate 250 g/ha, visual score 20 DAA (100%=total damage, 0%=no damage), read-out: Pre-emergence herbicidal activity (percentage phytotoxicity) AVEFA PRE
[7] = post-emergence, 360 h, POST-emergence, rate 250 g/ha, visual score 15 DAA (100%=total damage, 0%=no damage), read-out: Post-emergence herbicidal activity (percentage phytotoxicity) ECHCG POST
[8] = pre-emergence, 480 h, PRE-emergence, rate 250 g/ha, visual score 20 DAA (100%=total damage, 0%=no damage), read-out: Pre-emergence herbicidal activity (percentage phytotoxicity) ECHCG PRE
[9] = post-emergence, 360 h, POST-emergence, rate 250 g/ha, visual score 15 DAA (100%=total damage, 0%=no damage), read-out: Post-emergence herbicidal activity (percentage phytotoxicity) LOLPE POST
[10] = pre-emergence, 480 h, PRE-emergence, rate 250 g/ha, visual score 20 DAA (100%=total damage, 0%=no damage), read-out: Pre-emergence herbicidal activity (percentage phytotoxicity) LOLPE PRE
[11] = post-emergence, 360 h, Rate 250 g/ha, post-emergence, assessed visually 15 DAA, 100%=total damage, 0%=no damage, read-out: Post-emergence herbicidal activity (percentage phytotoxicity) ALOMY POST
[12] = pre-emergence, 480 h, Rate 250 g/ha, pre-emergence, assessed visually 20 DAA, 100%=total damage, 0%=no damage, read-out: Pre-emergence herbicidal activity (percentage phytotoxicity) ALOMY PRE
[13] = post-emergence, 360 h, Rate 250 g/ha, post-emergence, assessed visually 15 DAA, 100%=total damage, 0%=no damage, read-out: Post-emergence herbicidal activity (percentage phytotoxicity) AVEFA POST
[14] = pre-emergence, 480 h, Rate 250 g/ha, pre-emergence, assessed visually 20 DAA, 100%=total damage, 0%=no damage, read-out: Pre-emergence herbicidal activity (percentage phytotoxicity) AVEFA PRE
[15] = post-emergence, 360 h, Rate 250 g/ha, post-emergence, assessed visually 15 DAA, 100%=total damage, 0%=no damage, read-out: Post-emergence herbicidal activity (percentage phytotoxicity) ECHCG POST
[16] = pre-emergence, 480 h, Rate 250 g/ha, pre-emergence, assessed visually 20 DAA, 100%=total damage, 0%=no damage, read-out: Pre-emergence herbicidal activity (percentage phytotoxicity) ECHCG PRE
[17] = post-emergence, 360 h, Rate 250 g/ha, post-emergence, assessed visually 15 DAA, 100%=total damage, 0%=no damage, read-out: Post-emergence herbicidal activity (percentage phytotoxicity) LOLPE POST
[18] = pre-emergence, 480 h, Rate 250 g/ha, pre-emergence, assessed visually 20 DAA, 100%=total damage, 0%=no damage, read-out: Pre-emergence herbicidal activity (percentage phytotoxicity) LOLPE PRE

| Compound | pest or weed control at 250 g/ha [1, 3] [%] | pest or weed control at 250 g/ha [1, 4] [%] | pest or weed control at 250 g/ha (Avena fatua (AVEFA); [5]) [%] | pest or weed control at 250 g/ha (Avena fatua (AVEFA); [6]) [%] | pest or weed control at 250 g/ha [2, 7] [%] | pest or weed control at 250 g/ha [2, 8] [%] | pest or weed control at 250 g/ha (Lolium perenne (LOLPE); [9]) [%] | pest or weed control at 250 g/ha (Lolium perenne (LOLPE); [10]) [%] | pest or weed control at 250 g/ha [1, 11] [%] | pest or weed control at 250 g/ha [1, 12] [%] | pest or weed control at 250 g/ha (Avena fatua (AVEFA); [13]) [%] | pest or weed control at 250 g/ha (Avena fatua (AVEFA); [14]) [%] | pest or weed control at 250 g/ha [2, 15] [%] | pest or weed control at 250 g/ha [2, 16] [%] | pest or weed control at 250 g/ha (Lolium perenne (LOLPE); [17]) [%] | pest or weed control at 250 g/ha (Lolium perenne (LOLPE); [18]) [%] |
| --- | --- | --- | --- | --- | --- | --- | --- | --- | --- | --- | --- | --- | --- | --- | --- | --- |
| CCc1cc(C)cc(C)c1C1C(=O)CC(CC(=O)NCC2CC2)C1=O (stereo not drawn) [Compound B257] | 100 | 100 | 100 | 90 | 100 | 100 | 100 | 100 | – | – | – | – | – | – | – | – |
| C=CCNC(=O)CC1CC(=O)C(c2c(C)cc(OCC(F)(F)F)cc2CC)C1=O (stereo not drawn) [Compound B218] | 100 | 100 | 100 | 90 | 100 | 100 | 100 | 100 | – | – | – | – | – | – | – | – |
| COCC#CC(C)(C)NC(=O)CC1CC(=O)C(c2c(C)cc(C)cc2C)C1=O (stereo not drawn) [Compound A104] | – | – | – | – | – | – | – | – | 90 | 90 | 70 | 0 | 70 | 80 | 60 | 80 |
| CCc1cc(OCC(F)(F)F)cc(C)c1C1C(=O)CC(CC(=O)NCc2ccc(OC)cc2)C1=O (stereo not drawn) [Compound B215] | 100 | 90 | 100 | 80 | 100 | 90 | 100 | 90 | – | – | – | – | – | – | – | – |
| Cc1cc(-n2cc(Cl)cn2)cc(C)c1C1C(=O)CC(CC(=O)NCC(=O)c2ccccc2)C1=O (stereo not drawn) [Compound A137] | – | – | – | – | – | – | – | – | 40 | 60 | 70 | 60 | 90 | 70 | 60 | 70 |
| C=C(F)CNC(=O)CC1CC(=O)C(c2c(C)cc(-c3ncc(F)cc3F)cc2C)C1=O (stereo not drawn) [Compound B304] | 100 | 100 | 100 | 100 | 100 | 90 | 100 | 100 | – | – | – | – | – | – | – | – |
